Results on two compounds are retold here after PMC5843546 (Nature, 2018).

Molecules are shown by their SMILES.

Experiment [1] has as its target T1, DRD2-T4L(Sf9) I122^3.40A/L375^6.37A/L379^6.41A (Homo sapiens, UniProt P14416, I122A/L375A/L379A).
T1 sequence (P14416 with tags, fused parts or gaps I122A/L375A/L379A): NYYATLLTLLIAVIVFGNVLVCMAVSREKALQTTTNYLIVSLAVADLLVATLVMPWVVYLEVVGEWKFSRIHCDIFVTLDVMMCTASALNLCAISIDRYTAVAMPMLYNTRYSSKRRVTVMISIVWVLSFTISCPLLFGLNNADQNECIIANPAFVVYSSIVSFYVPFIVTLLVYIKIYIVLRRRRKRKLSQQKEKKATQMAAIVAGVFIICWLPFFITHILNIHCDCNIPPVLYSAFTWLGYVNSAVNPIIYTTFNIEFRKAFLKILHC
Kind of experiment: biochemical.

The target in a further experiment is DRD2 wild-type (Homo sapiens, UniProt P14416). Kind of experiment: biochemical.
The next experiment has as its target DRD2 W100^EL1A (Homo sapiens, UniProt P14416, W100A). The following applies: DRD2 W100^EL1A vs wild-type.
The target of the next experiment is DRD2 F110^3.28A (Homo sapiens, UniProt P14416, F110A). The settings on record: DRD2 F110^3.28A vs wild-type.

Broadly, the Ki is a measure of affinity in units of concentration, obtained from inhibition or displacement. On to `O=c1[nH]c2cccc(N3CCN(Cc4cccc(-c5ccccc5)c4)CC3)c2o1` [Bifeprunox], for which the Ki in experiment [1] (Ki) is 570 pM; in experiment [1] (pKi), 562 pM; at DRD2 wild-type (Ki), 1040 pM; on DRD2 wild-type (pKi) it was 302 pM.

As for `CNc1cc(OC)c(C(=O)NC2CCN(Cc3ccccc3)C2C)cc1Cl` (stereo not drawn) [Nemonapride, nemonapride], the “ΔpKd (mutant-WT)” value at DRD2 W100^EL1A is given as −0.98; at DRD2 F110^3.28A, 0.08.
